As usually defined, the % Inhibition is the change of the read-out against control, counted positive when it falls. The IC50 is the concentration that inhibits the measured activity by half.

16 compounds from patent US10538554B2, “Peptides and uses therefor as antiviral agents” (priority 2015, dated 2020) can be followed below.

Bridge positions count the residues as written; N and C are the ends. Square brackets hold non-standard residues; d marks the D form. Peptide text beside a SMILES is read from it.

In the assay the test system is H1N1 A/PR/8/1934. As to conditions: A/PR/8/1934, 48 h; for % Inhibition: 1 μM.

For the compound `CC[C@@H](C)[C@H]1NC(=O)[C@@H](Cc2ccccc2)NC(=O)[C@@H]([C@H](C)O)NC(=O)[C@@H](Cc2ccccc2)NC(=O)[C@@H](Cc2c[nH]c3ccccc23)NC(=O)[C@@H]([C@H](C)CC)NC(=O)[C@H](NC(=O)[C@H](CCCCN)NC(=O)[C@H](CCCCN)NC(=O)[C@H](CCCNC(=N)N)NC(=O)[C@@H](N)CCCNC(=N)N)CSSC[C@H](C(=O)O)NC(=O)[C@@H](CC(N)=O)NC1=O` [PSP V A8, H-RRKKciwftfinc-OH] (H-RRKK[dC][dI][dW][dF][dT][dF][dI][dN][dC]-OH; disulfide 5-13), the “% Inhibition” value amounted to 20%.

Take `CC[C@@H](C)[C@H]1NC(=O)[C@@H](Cc2ccccc2)NC(=O)[C@@H]([C@H](C)O)NC(=O)[C@@H](Cc2ccccc2)NC(=O)[C@@H](Cc2c[nH]c3ccccc23)NC(=O)[C@@H](CCCCN)NC(=O)[C@H](NC(=O)[C@H](CCCCN)NC(=O)[C@H](CCCCN)NC(=O)[C@H](CCCNC(=N)N)NC(=O)[C@@H](N)CCCNC(=N)N)CSSC[C@H](C(=O)O)NC(=O)[C@@H](CC(N)=O)NC1=O` [PSP V A9, H-RRKKckwftfinc-OH] (H-RRKK[dC][dK][dW][dF][dT][dF][dI][dN][dC]-OH; disulfide 5-13): the “% Inhibition” value is reported as 77%. For the compound `CC[C@@H](C)[C@H]1NC(=O)[C@@H](Cc2ccccc2)NC(=O)[C@@H]([C@H](C)O)NC(=O)[C@@H](Cc2ccccc2)NC(=O)[C@@H](Cc2c[nH]c3ccccc23)NC(=O)[C@@H](CC(C)C)NC(=O)[C@H](NC(=O)[C@H](CCCCN)NC(=O)[C@H](CCCCN)NC(=O)[C@H](CCCNC(=N)N)NC(=O)[C@@H](N)CCCNC(=N)N)CSSC[C@H](C(=O)O)NC(=O)[C@@H](CC(N)=O)NC1=O` [PSP V A10, H-RRKKclwftfinc-OH] (H-RRKK[dC][dL][dW][dF][dT][dF][dI][dN][dC]-OH; disulfide 5-13), the “% Inhibition” value was 65%. Still for that read-out and setting: in the case of `CC[C@@H](C)[C@H]1NC(=O)[C@@H](Cc2ccccc2)NC(=O)[C@@H]([C@H](C)O)NC(=O)[C@@H](Cc2ccccc2)NC(=O)[C@@H](Cc2c[nH]c3ccccc23)NC(=O)[C@@H](CCSC)NC(=O)[C@H](NC(=O)[C@H](CCCCN)NC(=O)[C@H](CCCCN)NC(=O)[C@H](CCCNC(=N)N)NC(=O)[C@@H](N)CCCNC(=N)N)CSSC[C@H](C(=O)O)NC(=O)[C@@H](CC(N)=O)NC1=O` [PSP V A11, M-RRKKcmwftfinc-OH] (H-RRKK[dC][dM][dW][dF][dT][dF][dI][dN][dC]-OH; disulfide 5-13; N-terminus assumed) it was 92%; in that of `CC[C@@H](C)[C@H]1NC(=O)[C@@H](Cc2ccccc2)NC(=O)[C@@H]([C@H](C)O)NC(=O)[C@@H](Cc2ccccc2)NC(=O)[C@@H](Cc2c[nH]c3ccccc23)NC(=O)[C@@H](CC(N)=O)NC(=O)[C@H](NC(=O)[C@H](CCCCN)NC(=O)[C@H](CCCCN)NC(=O)[C@H](CCCNC(=N)N)NC(=O)[C@@H](N)CCCNC(=N)N)CSSC[C@H](C(=O)O)NC(=O)[C@@H](CC(N)=O)NC1=O` [PSP V A12, H-RRKKcnwftfinc-OH] (H-RRKK[dC][dN][dW][dF][dT][dF][dI][dN][dC]-OH; disulfide 5-13), less than 20%; in that of `CC[C@@H](C)[C@H]1NC(=O)[C@@H](Cc2ccccc2)NC(=O)[C@@H]([C@H](C)O)NC(=O)[C@@H](Cc2ccccc2)NC(=O)[C@@H](Cc2c[nH]c3ccccc23)NC(=O)[C@H]2CCCN2C(=O)[C@H](NC(=O)[C@H](CCCCN)NC(=O)[C@H](CCCCN)NC(=O)[C@H](CCCNC(=N)N)NC(=O)[C@@H](N)CCCNC(=N)N)CSSC[C@H](C(=O)O)NC(=O)[C@@H](CC(N)=O)NC1=O` [PSP V A13, H-RRKKcpwftfinc-OH] (H-RRKK[dC][dP][dW][dF][dT][dF][dI][dN][dC]-OH; disulfide 5-13), less than 20%. For the compound `CC[C@@H](C)[C@H]1NC(=O)[C@@H](Cc2ccccc2)NC(=O)[C@@H]([C@H](C)O)NC(=O)[C@@H](Cc2ccccc2)NC(=O)[C@@H](Cc2c[nH]c3ccccc23)NC(=O)[C@@H](CCC(N)=O)NC(=O)[C@H](NC(=O)[C@H](CCCCN)NC(=O)[C@H](CCCCN)NC(=O)[C@H](CCCNC(=N)N)NC(=O)[C@@H](N)CCCNC(=N)N)CSSC[C@H](C(=O)O)NC(=O)[C@@H](CC(N)=O)NC1=O` [PSP V A14, H-RRKKcqwftfinc-OH] (H-RRKK[dC][dQ][dW][dF][dT][dF][dI][dN][dC]-OH; disulfide 5-13), the “% Inhibition” value turned out to be 44%.

Turning to `CC[C@@H](C)[C@H]1NC(=O)[C@@H](Cc2ccccc2)NC(=O)[C@@H]([C@H](C)O)NC(=O)[C@@H](Cc2ccccc2)NC(=O)[C@@H](Cc2c[nH]c3ccccc23)NC(=O)[C@@H](CCCNC(=N)N)NC(=O)[C@H](NC(=O)[C@H](CCCCN)NC(=O)[C@H](CCCCN)NC(=O)[C@H](CCCNC(=N)N)NC(=O)[C@@H](N)CCCNC(=N)N)CSSC[C@H](C(=O)O)NC(=O)[C@@H](CC(N)=O)NC1=O` [PSP V A15, H-RRKKcrwftfinc-OH] (H-RRKK[dC][dR][dW][dF][dT][dF][dI][dN][dC]-OH; disulfide 5-13), the “% Inhibition” value was 87%. Take `CC[C@@H](C)[C@H]1NC(=O)[C@@H](Cc2ccccc2)NC(=O)[C@@H]([C@H](C)O)NC(=O)[C@@H](Cc2ccccc2)NC(=O)[C@@H](Cc2c[nH]c3ccccc23)NC(=O)[C@@H](CO)NC(=O)[C@H](NC(=O)[C@H](CCCCN)NC(=O)[C@H](CCCCN)NC(=O)[C@H](CCCNC(=N)N)NC(=O)[C@@H](N)CCCNC(=N)N)CSSC[C@H](C(=O)O)NC(=O)[C@@H](CC(N)=O)NC1=O` [PSP V A16, H-RRKKcswftfinc-OH] (H-RRKK[dC][dS][dW][dF][dT][dF][dI][dN][dC]-OH; disulfide 5-13): the “% Inhibition” value was 54%. For `CC[C@@H](C)[C@H]1NC(=O)[C@@H](Cc2ccccc2)NC(=O)[C@@H]([C@H](C)O)NC(=O)[C@@H](Cc2ccccc2)NC(=O)[C@@H](Cc2c[nH]c3ccccc23)NC(=O)[C@@H](C(C)C)NC(=O)[C@H](NC(=O)[C@H](CCCCN)NC(=O)[C@H](CCCCN)NC(=O)[C@H](CCCNC(=N)N)NC(=O)[C@@H](N)CCCNC(=N)N)CSSC[C@H](C(=O)O)NC(=O)[C@@H](CC(N)=O)NC1=O` [PSP V A18, H-RRKKcvwftfinc-OH] (H-RRKK[dC][dV][dW][dF][dT][dF][dI][dN][dC]-OH; disulfide 5-13), the “% Inhibition” value turned out to be 81%. With `CC[C@@H](C)[C@H]1NC(=O)[C@@H](Cc2ccccc2)NC(=O)[C@@H]([C@H](C)O)NC(=O)[C@@H](Cc2ccccc2)NC(=O)[C@@H](Cc2c[nH]c3ccccc23)NC(=O)[C@@H](Cc2c[nH]c3ccccc23)NC(=O)[C@H](NC(=O)[C@H](CCCCN)NC(=O)[C@H](CCCCN)NC(=O)[C@H](CCCNC(=N)N)NC(=O)[C@@H](N)CCCNC(=N)N)CSSC[C@H](C(=O)O)NC(=O)[C@@H](CC(N)=O)NC1=O` [PSP V A19, H-RRKKcwwftfinc-OH] (H-RRKK[dC][dW][dW][dF][dT][dF][dI][dN][dC]-OH; disulfide 5-13), inhibition was half-maximal at 20 nM (IC50) and the “% Inhibition” value is reported as 97%. `CC[C@@H](C)[C@H]1NC(=O)[C@@H](Cc2ccccc2)NC(=O)[C@@H]([C@H](C)O)NC(=O)[C@@H](Cc2ccccc2)NC(=O)[C@@H](Cc2c[nH]c3ccccc23)NC(=O)[C@@H](Cc2ccc(O)cc2)NC(=O)[C@H](NC(=O)[C@H](CCCCN)NC(=O)[C@H](CCCCN)NC(=O)[C@H](CCCNC(=N)N)NC(=O)[C@@H](N)CCCNC(=N)N)CSSC[C@H](C(=O)O)NC(=O)[C@@H](CC(N)=O)NC1=O` [PSP V A20, H-RRKKcywftfinc-OH] (H-RRKK[dC][dY][dW][dF][dT][dF][dI][dN][dC]-OH; disulfide 5-13): the “% Inhibition” value is less than 20%. For `CC[C@@H](C)[C@H]1NC(=O)[C@@H](Cc2ccccc2)NC(=O)[C@@H]([C@H](C)O)NC(=O)[C@@H](Cc2ccccc2)NC(=O)[C@@H](Cc2c[nH]c3ccccc23)NC(=O)[C@@H](Cc2c[nH]c3ccccc23)NC(=O)[C@H](NC(=O)[C@H](CCCCN)NC(=O)[C@H](CCCCN)NC(=O)[C@H](CCCNC(=N)N)NC(=O)[C@@H](N)CCCNC(=N)N)CSSC[C@H](C(=O)O)NC(=O)[C@@H](CS)NC1=O` [PSP VI A2, H-RRKKcwwftficc-OH] (H-RRKK[dC][dW][dW][dF][dT][dF][dI][dC][dC]-OH; disulfide 5-13), the “% Inhibition” value was found to be 95%.

For the compound `CC[C@@H](C)[C@H]1NC(=O)[C@@H](Cc2ccccc2)NC(=O)[C@@H]([C@H](C)O)NC(=O)[C@@H](Cc2ccccc2)NC(=O)[C@@H](Cc2c[nH]c3ccccc23)NC(=O)[C@@H](Cc2c[nH]c3ccccc23)NC(=O)[C@H](NC(=O)[C@H](CCCCN)NC(=O)[C@H](CCCCN)NC(=O)[C@H](CCCNC(=N)N)NC(=O)[C@@H](N)CCCNC(=N)N)CSSC[C@H](C(=O)O)NC(=O)[C@@H](CC(=O)O)NC1=O` [PSP VI A3, H-RRKKcwwftfidc-OH] (H-RRKK[dC][dW][dW][dF][dT][dF][dI][dD][dC]-OH; disulfide 5-13), the “% Inhibition” value stood at 66%. For the compound `CC[C@@H](C)[C@H]1NC(=O)[C@@H](Cc2ccccc2)NC(=O)[C@@H]([C@H](C)O)NC(=O)[C@@H](Cc2ccccc2)NC(=O)[C@@H](Cc2c[nH]c3ccccc23)NC(=O)[C@@H](Cc2c[nH]c3ccccc23)NC(=O)[C@H](NC(=O)[C@H](CCCCN)NC(=O)[C@H](CCCCN)NC(=O)[C@H](CCCNC(=N)N)NC(=O)[C@@H](N)CCCNC(=N)N)CSSC[C@H](C(=O)O)NC(=O)[C@@H](CCC(=O)O)NC1=O` [PSP VI A4, H-RRKKcwwftfiec-OH] (H-RRKK[dC][dW][dW][dF][dT][dF][dI][dE][dC]-OH; disulfide 5-13), the “% Inhibition” value is recorded as 65%. Still for that read-out and setting: the same measure for `CC[C@@H](C)[C@H]1NC(=O)[C@@H](Cc2ccccc2)NC(=O)[C@@H]([C@H](C)O)NC(=O)[C@@H](Cc2ccccc2)NC(=O)[C@@H](Cc2c[nH]c3ccccc23)NC(=O)[C@@H](Cc2c[nH]c3ccccc23)NC(=O)[C@H](NC(=O)[C@H](CCCCN)NC(=O)[C@H](CCCCN)NC(=O)[C@H](CCCNC(=N)N)NC(=O)[C@@H](N)CCCNC(=N)N)CSSC[C@H](C(=O)O)NC(=O)[C@@H](Cc2ccccc2)NC1=O` [PSP VI A5, H-RRKKcwwftfifc-OH] (H-RRKK[dC][dW][dW][dF][dT][dF][dI][dF][dC]-OH; disulfide 5-13): 60%.
